Data reported in patent US7339042B2, “Gene delivery to tumors” (University of Florida Research Foundation, Inc., priority 2003, dated 2008).

What was measured:
rat cerebral arteries = experiment: Cell viability staining of arteries (propidium iodide, H3334) after peptide; type: cell-based; conditions: after treatment with peptide
Protocol: No PI statined smooth muscle cell nuclei were observed.
Effect of peptide on endothelial and smooth muscle function was evaluated by histamine (0.3 and 1 μM) and bradykinin (0.5 μM) (endothelium-dependent vasodilators) and 16 and 60 mM KCl (results in dilation and constriction of arteries by hyperpolarizing and depolarizing smooth muscle, respectively). These drug solutions were added to the superfusate and applied to the arteries extraluminally for 10 to 15 min before and after intraluminal perfusion with peptides. Effects of these agents were expressed as percent change in myogenic tone (decrease for dilators and increase for constrictors). Experiments were concluded by exposing the arteries to calcium free PCSF to obtain the passive diameter. Cell viability was determined by adding H3334 (Hoechst viability stain, final concentration 1 μM) and propidium iodide (final concentration 1 μM) to the arteriograph after the peptide incubation. Fluorescent micrographs were taken of the vessels after incubation with peptides and following addition of the vital stains using Till Photonics imaging system (Martinsried, Germany).

A172 cells = experiment: Fluorescein peptide uptake by A172 cells, fluorescence microscopy; type: cell-based, human; conditions: 30 uM peptide, 1 hr, 37° C., serum containing media
Protocol: For fluorescent microscopy studies cells were plated on 2 chamber cover slips at a density of 1×10^4 cells/chamber. Cells were incubated with […] peptide for 30 minutes in completed media, washed with PBS 3× and imaged using a Nikon Axiophot inverted fluorescent microscope. Images were taken using a Spot CCD camera.
Synthetic peptides derived from HIV Tat (Tat) and the Drosophila antennaepedia homeodomain (ANT) were tested for cell uptake by A172 cells (human glioblastomas). The peptides were labeled at the N-terminus with fluorescein. Cells were incubated with 30 uM peptide at 37° C. in serum containing media. Fluorescent micrographs were taken after 1 hr incubation at 37° C. […] The size of the peptide was increased by added an Mdm-2 binding domain derived from P14ARF. This domain was added to the C-terminus of the Tat and ANT peptides. The P14ARF domain was also placed at the N-terminus followed by the Tat peptide. All the peptides were labeled at the N-terminus with fluorescein and cell incubations similar to the Tat and ANT peptides were tested for cellular uptake. […] Both the bright field and fluorescent micrographs show altered cell morphology.

[1] = Fusion peptide cell killing, propidium iodide/FACS viability, RG2 cells; type: cell-based, rat; conditions: peptides in complete media for 1 hr, Table 2
Protocol: (§1) Other experiments were performed using two glioma cell lines, i.e., T98G and RG2. 1×10^6 cells per well were incubated in 6-well plates with peptides in complete media for 1 hr. Cells were removed from the plate using a cell stripper and the percentage of viable cells was determined by staining with propidium iodide and analyzing by fluorescence activated cell sorting (FACS).
(§2) There are 4 conserved amino acid differences between the rat and human CDKI sequence. Both sequences were attached to Tat and tested for cell killing activity in the rat glioma RG2 cells. Also the effect of orientation of the Tat and CDKI domains were tested. RG2 cells were plated on 6 well plates at approximately 70% confluency. Each of the peptides was added to the wells with increasing concentration. After 1 hr, cells were removed from the plates, washed 2× with PBS, stained with propidium iodide and analyzed by FACS for viable cells.
(§3) Cell viability studies were performed by plating the cells under the same conditions as the uptake studies. Cells were incubated with fluorescent peptides for 1 hr at 37° C. The cells were removed from the plate using cell striper. They were labeled with propidium iodide and fluorescein-AM. Percent PI positive cells were determined by FACS.
(§4) The cytotoxicity of the chimeric peptides was characterized using a cell viability assay. Peptides were added to cells at a fixed concentration. After a 30-minute incubation, cells were removed from the plate, stained with propidium iodide and the % positive cells were determined by FACS (fluorescent activated cell scanning). The test conditions were Tat, ANT, Tat-P14ARF, ANT-P14ARF and P14ARF. T98G cells were tested along with RG2 cells and A172 cells.

RG2 cells = experiment: as above; type: cell-based, rat; conditions: peptides in complete media for 1 hr, Table 2
Protocol: as §1, §2, §3, §4

[2] = tested on: T98G cells, RG2 cells and A172 cells; experiment: Cell viability assay of chimeric peptides in three cell types; type: cell-based, human and rat; conditions: fixed concentration, 30-minute incubation
Protocol: Synthetic peptides labeled with an N-terminal fluorescein were synthesized to test the ability of a shuttle domain to enter brain tumor and endothelial cells. The amino acid sequences for the shuttle domain was derived from HIV Tat amino acid 47 to 56 ([…] SEQ ID NO:23)(Robert-Guroff et al., J. Virol. 64:3391-3398, 1990) to which AGGG was added to the N-terminus, and the antennapedia homeodomain from drosophila (ANT) ([…] SEQ ID NO:24) (Astriab-Fisher et al., Pharm. Res., 19:744-754, 2002). A synthetic peptide (PTD-5) reported to have similar properties as Tat and ANT was also tested (Mai J. C. et al, Cancer Res. 2001; 61: 7709-7712.). Uptake was tested in two human glioblastoma cell lines and a rat glioma cell line, the latter being used for the rat brain tumor model. A 1 μM concentration of each peptide was added to 10^6 cells in a 6 well plate. […] The Tat and ANT peptides were doubled in length by the addition of […] (SEQ ID NO: 25), amino acids 42 to 55 from a human cyclin-dependent kinase inhibitor 2A (melanoma, p16, inhibits CDK4) (CDKI), transcript variant 4, mRNA (accession no. NM_058195). […]
The cytotoxicity of the chimeric peptides was characterized using a cell viability assay. […] After a 30-minute incubation, cells were removed from the plate, stained with propidium iodide and the % positive cells were determined by FACS (fluorescent activated cell scanning). […]

T98G cells = experiment: Fusion peptide cell killing, propidium iodide/FACS viability, T98G cells; type: cell-based, human
Protocol: as §1, §3

[3] = as above; type: cell-based, human; conditions: peptides in complete media for 1 hr, Table 2, read-out: % Viable Cells
Protocol: as §1, §3

SMILES: C[C@H](N)C(=O)NCC(=O)NCC(=O)NCC(=O)N[C@@H](Cc1ccc(O)cc1)C(=O)NCC(=O)N[C@@H](CCCNC(=N)N)C(=O)N[C@@H](CCCCN)C(=O)N[C@@H](CCCCN)C(=O)N[C@@H](CCCNC(=N)N)C(=O)N[C@@H](CCCNC(=N)N)C(=O)N[C@@H](CCC(N)=O)C(=O)N[C@@H](CCCNC(=N)N)C(=O)N[C@@H](CCCNC(=N)N)C(=O)N[C@@H](CCCNC(=N)N)C(=O)O [Tat]
- propidium iodide staining of blood vessels (rat cerebral arteries): no PI stained nuclei
- staining pattern (cell uptake) (A172 cells): intracellular punctate
- viability [1]: 94%
- % Viable (RG2 cells): ineffective
- cells killed [2]: No impact on cell viability
- % killing (toxicity) (T98G cells; 10 μM peptide, 1 hr): no toxicity
- % Viable Cells (T98G cells; peptides in complete media for 1 hr, Table 2): ineffective
- viability [3]: 94.9%
